Measurements taken from ChEMBL document CHEMBL1201862, “PubChem BioAssay data set” (2004).
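1) Cells in 96-well plates. 2) Compound, 48 h, 5 concentrations. 3) Linear interpolation between surrounding doses. 4) Unreached endpoint = highest concentration. GI50 is the concentration that inhibits growth by half.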 Active and inactive are the calls of the source. Cut-off read from the data, not from the text of the source: active = GI50 up to about 1.1 µM and inactive = higher.

Assays:
Test in all cases: NCI-60 cell line screen, 48 h
786-0 = system: 786-0
A498 = system: A498
A549 = system: A549
ACHN = system: ACHN
CAKI-1 = system: CAKI-1
CCRF-CEM = system: CCRF-CEM
COLO 205 = system: COLO 205
DLD-1 = system: DLD-1
DMS-114 = system: DMS-114
DMS-273 = system: DMS-273
EKVX = system: EKVX
HCC 2998 = system: HCC 2998
HCT-116 = system: HCT-116
HCT-15 = system: HCT-15
HL-60 = system: HL-60
HOP-18 = system: HOP-18
HOP-92 = system: HOP-92
HT-29 = system: HT-29
IGROV-1 = system: IGROV-1
K562 = system: K562
KM-20L2 = system: KM-20L2
KM12 = system: KM12
LOX IMVI = system: LOX IMVI
LXFL 529 = system: LXFL 529
M14 = system: M14
M19-MEL = system: M19-MEL
MOLT-4 = system: MOLT-4
Malme-3M = system: Malme-3M
NCI-H226 = system: NCI-H226
NCI-H23 = system: NCI-H23
NCI-H460 = system: NCI-H460
NCI-H522 = system: NCI-H522
OVCAR-3 = system: OVCAR-3
OVCAR-4 = system: OVCAR-4
OVCAR-5 = system: OVCAR-5
OVCAR-8 = system: OVCAR-8
RXF 631 = system: RXF 631
SF-268 = system: SF-268
SF-295 = system: SF-295
SF-539 = system: SF-539
SK-MEL-28 = system: SK-MEL-28
SK-MEL-2 = system: SK-MEL-2
SK-MEL-5 = system: SK-MEL-5
SK-OV-3 = system: SK-OV-3
SN12C = system: SN12C
SNB-19 = system: SNB-19
SNB-75 = system: SNB-75
SNB-78 = system: SNB-78
SR = system: SR
SW-620 = system: SW-620
TK-10 = system: TK-10
U-251 = system: U-251
UACC-257 = system: UACC-257
UACC-62 = system: UACC-62
UO-31 = system: UO-31
BT-549 = system: BT-549
DU-145 = system: DU-145
HOP-62 = system: HOP-62
Hs-578T = system: Hs-578T
MCF7 = system: MCF7
MDA-MB-231 = system: MDA-MB-231
MDA-MB-435 = system: MDA-MB-435
MDA-N = system: MDA-N
NCI/ADR-RES = system: NCI/ADR-RES
PC-3 = system: PC-3
RPMI-8226 = system: RPMI-8226
RXF 393 = system: RXF 393
T47D = system: T47D
XF498 = system: XF498

SMILES: COC(=O)C1CC2c3c(c4ccccc4n3C)CC(C1=O)N2C (stereo unspecified)
- GI50 (786-0): 47.5 µM (inactive)
- GI50 (A498): 28.2 µM (inactive)
- GI50 (A549): 36.4 µM (inactive)
- GI50 (ACHN): 35.7 µM (inactive)
- GI50 (CAKI-1): 43.5 µM (inactive)
- GI50 (CCRF-CEM): 34.6 µM (inactive)
- GI50 (COLO 205): 17.3 µM (inactive)
- GI50 (DLD-1): 40.9 µM (inactive)
- GI50 (DMS-114): 21.2 µM (inactive)
- GI50 (DMS-273): 20.2 µM (inactive)
- GI50 (EKVX): 57.1 µM (inactive)
- GI50 (HCC 2998): 34.8 µM (inactive)
- GI50 (HCT-116): 33 µM (inactive)
- GI50 (HCT-15): 22.3 µM
- GI50 (HL-60): 27.3 µM (inactive)
- GI50 (HOP-18): 40 µM (inactive)
- GI50 (HOP-92): 74.3 µM (inactive)
- GI50 (HT-29): 42.1 µM (inactive)
- GI50 (IGROV-1): 52.8 µM (inactive)
- GI50 (K562): 40.1 µM (inactive)
- GI50 (KM-20L2): 39.8 µM (inactive)
- GI50 (KM12): 37.8 µM (inactive)
- GI50 (LOX IMVI): 78.9 µM (inactive)
- GI50 (LXFL 529): 39 µM (inactive)
- GI50 (M14): 37.8 µM (inactive)
- GI50 (M19-MEL): 49.3 µM (inactive)
- GI50 (MOLT-4): 29 µM (inactive)
- GI50 (Malme-3M): 43.9 µM (inactive)
- GI50 (NCI-H226): 50.6 µM (inactive)
- GI50 (NCI-H23): 50.8 µM (inactive)
- GI50 (NCI-H460): 45.3 µM (inactive)
- GI50 (NCI-H522): 17.3 µM (inactive)
- GI50 (OVCAR-3): 34.8 µM (inactive)
- GI50 (OVCAR-4): 37.3 µM (inactive)
- GI50 (OVCAR-5): > 100 µM (inactive)
- GI50 (OVCAR-8): 34.5 µM (inactive)
- GI50 (RXF 631): 63.4 µM (inactive)
- GI50 (SF-268): 68.9 µM (inactive)
- GI50 (SF-295): > 100 µM (inactive)
- GI50 (SF-539): 32.5 µM (inactive)
- GI50 (SK-MEL-28): 51.9 µM (inactive)
- GI50 (SK-MEL-2): > 100 µM (inactive)
- GI50 (SK-MEL-5): 25.1 µM (inactive)
- GI50 (SK-OV-3): 51.4 µM (inactive)
- GI50 (SN12C): 67.8 µM (inactive)
- GI50 (SNB-19): 75.9 µM (inactive)
- GI50 (SNB-75): 31.5 µM (inactive)
- GI50 (SNB-78): 47 µM (inactive)
- GI50 (SR): 27.5 µM (inactive)
- GI50 (SW-620): 34.8 µM (inactive)
- GI50 (TK-10): 40.2 µM (inactive)
- GI50 (U-251): 49.8 µM (inactive)
- GI50 (UACC-257): 32.8 µM (inactive)
- GI50 (UACC-62): 49.5 µM (inactive)
- GI50 (UO-31): 21.4 µM (inactive)

SMILES: Cc1c2cc[n+]([O-])cc2c(C)c2c1[nH]c1ccccc12
- GI50 (786-0): 2.74 µM (inactive)
- GI50 (A498): 7.33 µM (inactive)
- GI50 (A549): 4.28 µM (inactive)
- GI50 (ACHN): 1.94 µM (inactive)
- GI50 (BT-549): 9.64 µM (inactive)
- GI50 (CAKI-1): 7.05 µM (inactive)
- GI50 (CCRF-CEM): 2.88 µM (inactive)
- GI50 (COLO 205): 2.15 µM (inactive)
- GI50 (DLD-1): 5.42 µM (inactive)
- GI50 (DMS-114): 11.2 µM (inactive)
- GI50 (DMS-273): 3.82 µM (inactive)
- GI50 (DU-145): 8.73 µM (inactive)
- GI50 (EKVX): 11.4 µM (inactive)
- GI50 (HCC 2998): 12.5 µM (inactive)
- GI50 (HCT-116): 1.39 µM (inactive)
- GI50 (HCT-15): 5.22 µM
- GI50 (HL-60): 7.8 µM (inactive)
- GI50 (HOP-18): 45 µM (inactive)
- GI50 (HOP-62): 5.74 µM (inactive)
- GI50 (HOP-92): 10.2 µM (inactive)
- GI50 (HT-29): 3.57 µM (inactive)
- GI50 (Hs-578T): 3.54 µM (inactive)
- GI50 (IGROV-1): 6.89 µM (inactive)
- GI50 (K562): 4.84 µM (inactive)
- GI50 (KM-20L2): 4.06 µM (inactive)
- GI50 (KM12): 9.75 µM (inactive)
- GI50 (LOX IMVI): 1.67 µM (inactive)
- GI50 (LXFL 529): 4.65 µM (inactive)
- GI50 (M14): 7.1 µM (inactive)
- GI50 (M19-MEL): 13.6 µM (inactive)
- GI50 (MCF7): 1.21 µM (inactive)
- GI50 (MDA-MB-231): 4.28 µM (inactive)
- GI50 (MDA-MB-435): 6.61 µM (inactive)
- GI50 (MDA-N): 4.15 µM (inactive)
- GI50 (MOLT-4): 0.998 µM (active)
- GI50 (Malme-3M): 8.95 µM (inactive)
- GI50 (NCI-H226): 5.37 µM (inactive)
- GI50 (NCI-H23): 6.04 µM (inactive)
- GI50 (NCI-H460): 2.45 µM (inactive)
- GI50 (NCI-H522): 5.97 µM (inactive)
- GI50 (NCI/ADR-RES): 20.8 µM (inactive)
- GI50 (OVCAR-3): 12.5 µM (inactive)
- GI50 (OVCAR-4): 9.95 µM (inactive)
- GI50 (OVCAR-5): 4.59 µM (inactive)
- GI50 (OVCAR-8): 2.86 µM (inactive)
- GI50 (PC-3): 5.04 µM (inactive)
- GI50 (RPMI-8226): 6.19 µM (inactive)
- GI50 (RXF 393): 6.73 µM (inactive)
- GI50 (RXF 631): 0.879 µM (active)
- GI50 (SF-268): 4.9 µM (inactive)
- GI50 (SF-295): 4.58 µM (inactive)
- GI50 (SF-539): 2.99 µM (inactive)
- GI50 (SK-MEL-28): 37.8 µM (inactive)
- GI50 (SK-MEL-2): 12.1 µM (inactive)
- GI50 (SK-MEL-5): 6.85 µM (inactive)
- GI50 (SK-OV-3): 10.8 µM (inactive)
- GI50 (SN12C): 4.93 µM (inactive)
- GI50 (SNB-19): 7.13 µM (inactive)
- GI50 (SNB-75): 5.77 µM (inactive)
- GI50 (SNB-78): 7.71 µM (inactive)
- GI50 (SR): 1.29 µM (inactive)
- GI50 (SW-620): 1.87 µM (inactive)
- GI50 (T47D): 2.14 µM (inactive)
- GI50 (TK-10): 5.32 µM (inactive)
- GI50 (U-251): 3.76 µM (inactive)
- GI50 (UACC-257): 17.7 µM (inactive)
- GI50 (UACC-62): 7.14 µM (inactive)
- GI50 (UO-31): 5.47 µM (inactive)
- GI50 (XF498): 9.98 µM (inactive)

SMILES: O=C(Nc1ccc(Cl)cc1Cl)C(=O)C(C(=O)c1ccncc1)C1OC(=O)c2ccccc21 (stereo unspecified)
- GI50 (786-0): > 100 µM (inactive)
- GI50 (A498): > 100 µM (inactive)
- GI50 (A549): > 100 µM (inactive)
- GI50 (ACHN): > 100 µM (inactive)
- GI50 (CAKI-1): > 100 µM (inactive)
- GI50 (CCRF-CEM): > 100 µM (inactive)
- GI50 (COLO 205): > 100 µM (inactive)
- GI50 (DLD-1): > 100 µM (inactive)
- GI50 (DMS-114): > 100 µM (inactive)
- GI50 (EKVX): > 100 µM (inactive)
- GI50 (HCC 2998): > 100 µM (inactive)
- GI50 (HCT-116): > 100 µM (inactive)
- GI50 (HCT-15): > 100 µM
- GI50 (HL-60): > 100 µM (inactive)
- GI50 (HOP-18): > 100 µM (inactive)
- GI50 (HOP-62): > 100 µM (inactive)
- GI50 (HOP-92): > 100 µM (inactive)
- GI50 (HT-29): > 100 µM (inactive)
- GI50 (IGROV-1): > 100 µM (inactive)
- GI50 (K562): > 100 µM (inactive)
- GI50 (KM-20L2): > 100 µM (inactive)
- GI50 (KM12): > 100 µM (inactive)
- GI50 (LOX IMVI): > 100 µM (inactive)
- GI50 (LXFL 529): > 100 µM (inactive)
- GI50 (M14): > 100 µM (inactive)
- GI50 (M19-MEL): > 100 µM (inactive)
- GI50 (MOLT-4): > 100 µM (inactive)
- GI50 (Malme-3M): > 100 µM (inactive)
- GI50 (NCI-H226): > 100 µM (inactive)
- GI50 (NCI-H23): > 100 µM (inactive)
- GI50 (NCI-H460): > 100 µM (inactive)
- GI50 (NCI-H522): > 100 µM (inactive)
- GI50 (OVCAR-3): > 100 µM (inactive)
- GI50 (OVCAR-4): > 100 µM (inactive)
- GI50 (OVCAR-5): > 100 µM (inactive)
- GI50 (OVCAR-8): > 100 µM (inactive)
- GI50 (RPMI-8226): > 100 µM (inactive)
- GI50 (RXF 393): > 100 µM (inactive)
- GI50 (RXF 631): > 100 µM (inactive)
- GI50 (SF-268): > 100 µM (inactive)
- GI50 (SF-295): > 100 µM (inactive)
- GI50 (SF-539): > 100 µM (inactive)
- GI50 (SK-MEL-28): > 100 µM (inactive)
- GI50 (SK-MEL-5): > 100 µM (inactive)
- GI50 (SK-OV-3): > 100 µM (inactive)
- GI50 (SN12C): > 100 µM (inactive)
- GI50 (SNB-19): > 100 µM (inactive)
- GI50 (SNB-75): > 100 µM (inactive)
- GI50 (SNB-78): > 100 µM (inactive)
- GI50 (SR): > 100 µM (inactive)
- GI50 (SW-620): > 100 µM (inactive)
- GI50 (TK-10): > 100 µM (inactive)
- GI50 (U-251): > 100 µM (inactive)
- GI50 (UACC-257): > 100 µM (inactive)
- GI50 (UACC-62): > 100 µM (inactive)
- GI50 (UO-31): > 100 µM (inactive)
- GI50 (XF498): > 100 µM (inactive)
